Test results taken from patent US8748426B2, “Inhibitors of diacylglycerol acyl transferase” (Piramal Enterprises Limited, priority 2009, dated 2014).

Molecular target: T1, hDGAT1 (Homo sapiens, UniProt O75907)
T1 sequence (O75907 1-488): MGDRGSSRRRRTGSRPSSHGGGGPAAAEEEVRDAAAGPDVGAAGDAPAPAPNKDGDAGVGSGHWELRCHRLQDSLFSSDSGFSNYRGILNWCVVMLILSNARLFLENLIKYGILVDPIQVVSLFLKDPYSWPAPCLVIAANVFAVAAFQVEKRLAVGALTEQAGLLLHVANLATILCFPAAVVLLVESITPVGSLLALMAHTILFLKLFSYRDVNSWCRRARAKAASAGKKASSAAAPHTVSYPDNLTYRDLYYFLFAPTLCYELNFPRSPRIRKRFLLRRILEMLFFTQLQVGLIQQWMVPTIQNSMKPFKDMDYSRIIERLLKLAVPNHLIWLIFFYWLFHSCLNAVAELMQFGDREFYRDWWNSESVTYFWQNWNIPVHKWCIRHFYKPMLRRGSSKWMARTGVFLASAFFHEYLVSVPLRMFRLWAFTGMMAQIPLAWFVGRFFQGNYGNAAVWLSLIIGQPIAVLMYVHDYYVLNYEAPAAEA
Assay: In-vitro DGAT1 assay (14C oleoyl CoA, hDGAT1 microsomes from Sf9 cells)
Settings: at 1 μM

| SMILES | % Inhibition of hDGAT1 |
| --- | --- |
| O=C(Nc1ccc(-c2ccc3c(c2)C(=O)N(C24C[C@@H]5C[C@@H](CC(C(=O)O)(C5)C2)C4)C3)cc1)c1ccc(Cl)cc1 [Example 569, (1r,3s,5R,7S)-3-(6-(4-(4-Chlorobenzamido)phenyl)-1-oxoisoindolin-2-yl)adamantane-1-carboxylic acid] | + (10-50% Inhibition) |
| CC(C)[C@@H](C(=O)O)N1Cc2ccc(-c3ccc(NC(=O)c4ccc(-c5ccccc5)cc4)cc3Cl)cc2C1=O [Example 482, (S)-2-(6-(4-Biphenyl-4-ylcarboxamido-2-chlorophenyl)-1-oxoisoindolin-2-yl)-3-methylbutanoic acid] | ++ (>50% Inhibition) |
| CC(C)[C@H](C(=O)O)N1Cc2ccc(-c3ccc(NC(=O)c4ccc(-c5ccccc5)cc4)cc3)cc2C1=O [Example 541, (R)-2-(6-(4-([1,1′-Biphenyl]-4-ylcarboxamido)phenyl)-1-oxoisoindolin-2-yl)-3-methylbutanoic acid] | ++ (>50% Inhibition) |

Results, then the compound that gave them:

| % Inhibition of hDGAT1 | SMILES |
| --- | --- |
| ++ (>50% Inhibition) | O=C(Nc1ccc(-c2ccc3c(c2)C(=O)N(C24C[C@@H]5C[C@@H](CC(C(=O)O)(C5)C2)C4)C3)cc1)c1ccc(C(F)(F)F)cc1 [Example 571, (1r,3s,5R,7S)-3-(1-Oxo-6-(4-(4-(trifluoromethyl)benzamido)phenyl)isoindolin-2-yl)adamantane-1-carboxylic acid] |
| ++ (>50% Inhibition) | CC(C)[C@@H](C(=O)O)N1Cc2ccc(-c3ccc(NC(=S)Nc4ccccc4C(F)(F)F)cc3)cc2C1=O [Example 66] |

Same assay, conditions: read-out: % Inhibition of hDGAT1

| SMILES | inhibition at 1 µM |
| --- | --- |
| CC(C)[C@@H](C(=O)O)N1Cc2ccc(-c3ccc(NC(=O)c4ccc(N5CCOCC5)nc4)cc3)cc2C1=O [Example 213, (S)-3-Methyl-2-(6-(4-(6-morpholinonicotinamido)phenyl)-1-oxoisoindolin-2-yl)butanoic acid] | 10 to 50% |
| CC(C)[C@@H](C(=O)O)N1Cc2ccc(-c3ccc(NC(=O)Cc4ccccc4)cc3)cc2C1=O [Example 659, (S)-3-Methyl-2-(1-oxo-6-(4-(2-phenylacetamido)phenyl)isoindolin-2-yl)butanoic acid] | 10 to 50% |
| CC(C)(C(=O)O)N1Cc2ccc(-c3ccc(NC(=O)c4ccc(Cl)cc4)cc3)cc2C1=O [Example 521, 2-(6-(4-(4-Chlorobenzamido)phenyl)-1-oxoisoindolin-2-yl)-2-methylpropanoic acid] | > 50% |
| O=C(O)CCCN1Cc2cc(-c3ccc(NC(=O)Nc4cccc(C(F)(F)F)c4)cc3)ccc2C1=O [Example 376, 4-(1-Oxo-5-(4-(3-(3-(trifluoromethyl)phenyl)ureido)phenyl)isoindolin-2-yl)butanoic acid] | 10 to 50% |
| COc1ccc(S(=O)(=O)Nc2ccc(-c3ccc4c(c3)C(=O)N([C@H](C(=O)O)C(C)C)C4)cc2)cc1 [Example 90, (S)-2-(6-(4-(4-Methoxyphenylsulfonamido)phenyl)-1-oxoisoindolin-2-yl)-3-methylbutanoic acid] | 10 to 50% |
| CC(C)[C@@H](C(=O)O)N1Cc2ccc(-c3ccc(NC(=O)c4ccccc4)cc3)cc2C1=O [Example 98, (S)-2-(6-(4-Benzamidophenyl)-1-oxoisoindolin-2-yl)-3-methylbutanoic acid] | 10 to 50% |
| CC(C)[C@@H](C(=O)O)N1Cc2ccc(-c3ccc(NC(=O)c4ccc5ccccc5c4)c(F)c3)cc2C1=O [Example 450, (S)-2-(6-(4-(2-Naphthamido)-3-fluorophenyl)-1-oxoisoindolin-2-yl)-3-methyl butanoic acid] | > 50% |
| CC(C)[C@@H](C(=O)O)N1Cc2cc(-c3ccc(NC(=O)c4ccc(F)cc4)cc3)ccc2C1=O [Example 307, (S)-2-(5-(4-(4-Fluorobenzamido)phenyl)-1-oxoisoindolin-2-yl)-3-methylbutanoic acid] | 10 to 50% |
| O=C(Nc1ccc(-c2ccc3c(c2)C(=O)N(C2(C(=O)O)CCCC2)C3)cc1)c1ccc(Cl)cc1 [Example 533, 1-(6-(4-(4-Chlorobenzamido)phenyl)-1-oxoisoindolin-2-yl)cyclopentane carboxylic acid] | > 50% |
| CC(C)[C@H](C(=O)O)N1Cc2cc(-c3ccc(NC(=O)Nc4cccc(C(F)(F)F)c4)cc3)ccc2C1=O [Example 361, (R)-3-Methyl-2-(1-oxo-5-(4-(3-(3-(trifluoromethyl)phenyl)ureido)phenyl)isoindolin-2-yl)butanoic acid] | 10 to 50% |
| CC(C)[C@@H](C(=O)O)N1Cc2ccc(-c3ccc(NC(=O)Nc4cccc(C(F)(F)F)c4)cc3)cc2C1=O [Example 38, (S)-3-Methyl-2-(1-oxo-6-(4-(3-(3-(trifluoromethyl)phenyl)ureido)phenyl)isoindolin-2-yl)butanoic acid] | > 50% |
| CC(C)[C@@H](C(=O)O)N1Cc2ccc(-c3ccc(NC(=O)c4nc(-c5ccccc5)cs4)cc3)cc2C1=O [Example 624, (S)-3-Methyl-2-(1-oxo-6-(4-(4-phenylthiazole-2-carboxamido)phenyl)isoindolin-2-yl)butanoic acid] | > 50% |
| COc1cccc(NC(=O)Nc2ccc(-c3ccc4c(c3)C(=O)N([C@H](C(=O)O)C(C)C)C4)cc2)c1 [Example 26, (S)-2-(6-(4-(3-(3-Methoxyphenyl)ureido)phenyl)-1-oxoisoindolin-2-yl)-3-methyl butanoic acid] | 10 to 50% |
| O=C(Nc1ccc(-c2ccc3c(c2)CN(C2(C(=O)O)CCCC2)C3=O)cc1)Nc1cccc(C(F)(F)F)c1 [Example 370, 1-(1-Oxo-5-(4-(3-(3-(trifluoromethyl)phenyl)ureido)phenyl)isoindolin-2-yl)cyclopentanecarboxylic acid] | 10 to 50% |
| CC(C)[C@@H](C(=O)O)N1Cc2cc(-c3ccc(NC(=O)c4cccc(F)c4)cc3)ccc2C1=O [Example 313, (S)-2-(5-(4-(3-Fluorobenzamido)phenyl)-1-oxoisoindolin-2-yl)-3-methylbutanoic acid] | 10 to 50% |
| CC(C)[C@@H](C(=O)O)N1Cc2ccc(-c3cnc(NC(=O)c4ccc(C(C)(C)C)cc4)cn3)cc2C1=O [Example 505, (S)-2-(6-(5-(4-tert-Butylbenzamido)pyrazin-2-yl)-1-oxoisoindolin-2-yl)-3-methylbutanoic acid] | 10 to 50% |
| O=C(Nc1ccc(-c2ccc3c(c2)C(=O)N(C2(C(=O)O)CCC2)C3)cc1)c1ccc(Cl)cc1 [Example 578, 1-(6-(4-(4-Chlorobenzamido)phenyl)-1-oxoisoindolin-2-yl)cyclobutane carboxylic acid] | > 50% |

The next lines start with the values.

| inhibition at 1 µM | SMILES |
| --- | --- |
| > 50% | CCCCCCc1ccc(C(=O)Nc2ccc(-c3ccc4c(c3)C(=O)N([C@H](C(=O)O)C(C)C)C4)cc2)cc1 [Example 182, (S)-2-(6-(4-(4-Hexylbenzamido)phenyl)-1-oxoisoindolin-2-yl)-3-methylbutanoic acid] |
| > 50% | CC(C)[C@@H](C(=O)O)N1Cc2ccc(-c3ccc(NC(=O)Nc4ccc(Oc5ccccc5)cc4)cc3)cc2C1=O [Example 50, (S)-3-Methyl-2-(1-oxo-6-(4-(3-(4-phenoxyphenyl)ureido)phenyl)isoindolin-2-yl)butanoic acid] |
| 10 to 50% | Cc1cccc(NC(=O)Nc2ccc(-c3ccc4c(c3)C(=O)N([C@H](C(=O)O)C(C)C)C4)cc2)c1 [Example 22, (S)-3-Methyl-2-(1-oxo-6-(4-(3-m-tolylureido)phenyl)isoindolin-2-yl)butanoic acid] |
| 10 to 50% | CC(C)[C@@H](C(=O)O)N1Cc2ccc(-c3ccc(NC(=O)c4ccc5ccccc5c4)cc3C(F)(F)F)cc2C1=O [Example 428, (S)-2-(6-(4-(2-Naphthamido)-2-(trifluoromethyl)phenyl)-1-oxoisoindolin-2-yl)-3-methylbutanoic acid] |
| > 50% | COc1ccccc1C(=O)Nc1ccc(-c2ccc3c(c2)C(=O)N([C@H](C(=O)O)C(C)C)C3)cc1 [Example 160, (S)-2-(6-(4-(2-Methoxybenzamido)phenyl)-1-oxoisoindolin-2-yl)-3-methyl butanoic acid] |
| > 50% | CC(C)[C@@H](C(=O)O)N1Cc2ccc(-c3ccc(NC(=O)c4cccnc4Cl)cc3)cc2C1=O [Example 209, (S)-2-(6-(4-(2-Chloronicotinamido)phenyl)-1-oxoisoindolin-2-yl)-3-methyl butanoic acid] |
| 10 to 50% | O=C(O)CN1Cc2ccc(-c3ccc(NC(=O)Nc4cccc(C(F)(F)F)c4)cc3)cc2C1=O [Example 334, 2-(1-Oxo-6-(4-(3-(3-(trifluoromethyl)phenyl)ureido)phenyl)isoindolin-2-yl)acetic acid] |
| > 50% | CCOc1cc(OCC)cc(C(=O)Nc2ccc(-c3ccc4c(c3)C(=O)N([C@H](C(=O)O)C(C)C)C4)cc2)c1 [Example 146, (S)-2-(6-(4-(3,5-Diethoxybenzamido)phenyl)-1-oxoisoindolin-2-yl)-3-methyl butanoic acid] |
| 10 to 50% | CC(C)[C@@H](C(=O)O)N1Cc2ccc(-c3ccc(NC(=O)c4c(F)cccc4C(F)(F)F)cc3)cc2C1=O [Example 126, (S)-2-(6-(4-(2-Fluoro-6-(trifluoromethyl)benzamido)phenyl)-1-oxoisoindolin-2-yl)-3-methylbutanoic acid] |
| > 50% | CC(C)[C@@H](C(=O)O)N1Cc2ccc(-c3ccc(NC(=O)c4ccc(C(F)(F)F)cc4F)cc3)cc2C1=O [Example 192, (S)-2-(6-(4-(2-Fluoro-4-(trifluoromethyl)benzamido)phenyl)-1-oxoisoindolin-2-yl)-3-methylbutanoic acid] |
